Data as given in ChEMBL document CHEMBL3526083, “Prediction of relative in vivo metabolite exposure from in vitro data using two model drugs: dextromethorphan and omeprazole” (Drug Metab Dispos, 2012).

What was measured:
[1] = organism: Homo sapiens; test: Ratio of AUC for compound to omeprazolein human; assay type: ADME, organism-based; conditions: in vivo
[2] = tested on: Liver microsome; test: Drug metabolism in human liver microsomes assessed as dextrorphan formation measured as plasma fraction unbound; assay type: ADME, cell-free
[3] = tested on: Liver microsome; test: Drug metabolism in human liver microsomes assessed as dextrorphan formation measured as intrinsic clearance; assay type: ADME
[4] = tested on: Liver microsome; test: Drug metabolism in human liver microsomes assessed as dextrorphan formation measured as intrinsic unbound clearance; assay type: ADME
[5] = tested on: Liver microsome; test: Drug metabolism in human liver microsomes assessed as dextrorphan formation measured per mg of microsomal protein; assay type: ADME
[6] = tested on: Liver microsome; test: Drug metabolism in human liver microsomes assessed as dextrorphan formation; assay type: ADME
[7] = tested on: Liver microsome; test: Drug metabolism in human liver microsomes assessed as dextrorphan formation measured as microsomal fraction unbound; assay type: ADME
[8] = tested on: Liver microsome; test: Drug metabolism in human liver metabolism assessed as omeprazole sulfone depletion measured as intrinsic unbound clearance per mg of microsomal protein; assay type: ADME; conditions: microsomes
[9] = tested on: Liver microsome; test: Drug metabolism in human liver metabolism assessed as omeprazole sulfone depletion measured as plasma fraction unbound; assay type: ADME, cell-free
[10] = tested on: Liver microsome; test: Drug metabolism in human liver metabolism assessed as 5OH-omeprazole formation; assay type: ADME, tissue-based
[11] = tested on: Liver microsome; test: Drug metabolism in human liver metabolism assessed as omeprazole sulfone formation measured as microsomal fraction unbound per mg of microsomal protein; assay type: ADME; conditions: microsomes
[12] = tested on: Liver microsome; test: Drug metabolism in human liver metabolism assessed as omeprazole sulfone formation measured as plasma fraction unbound; assay type: ADME, cell-free
[13] = tested on: Liver microsome; test: Drug metabolism in human liver metabolism assessed as 5OH-omeprazole formation measured as microsomal fraction unbound; assay type: ADME; conditions: microsomes
[14] = tested on: Hepatocyte; test: Drug metabolism in human hepatocytes assessed as omeprazole sulfone depletion measured per 10^6 cells as intrinsic unbound clearance; assay type: ADME, cell-based
[15] = tested on: Liver microsome; test: Drug metabolism in human liver metabolism assessed as omeprazole sulfone depletion measured as microsomal fraction unbound; assay type: ADME; conditions: microsomes
[16] = tested on: Liver microsome; test: Drug metabolism in human liver metabolism assessed as omeprazole sulfone formation measured as intrinsic unbound clearance per mg of microsomal protein; assay type: ADME; conditions: microsomes
[17] = tested on: Liver microsome; test: Drug metabolism in human liver metabolism assessed as 5OH-omeprazole formation measured per mg of microsomal protein; assay type: ADME; conditions: microsomes
[18] = tested on: Liver microsome; test: Drug metabolism in human liver metabolism assessed as 5OH-omeprazole formation measured as intrinsic clearance per mg of microsomal protein; assay type: ADME; conditions: microsomes
[19] = tested on: Hepatocyte; test: Drug metabolism in human hepatocytes assessed as 5OH-omeprazole depletion measured per 10^6 cells as intrinsic unbound clearance; assay type: ADME, cell-based
[20] = tested on: Hepatocyte; test: Drug metabolism in human hepatocytes assessed as 5OH-omeprazole formation measured per 10^6 cells as intrinsic unbound clearance; assay type: ADME, cell-based
[21] = tested on: Liver microsome; test: Drug metabolism in human liver metabolism assessed as 5OH-omeprazole formation measured as plasma fraction unbound; assay type: ADME, cell-free
[22] = tested on: Liver microsome; test: Drug metabolism in human liver metabolism assessed as omeprazole sulfone formation measured as intrinsic clearance per mg of microsomal protein; assay type: ADME; conditions: microsomes
[23] = tested on: Liver microsome; test: Drug metabolism in human liver metabolism assessed as omeprazole sulfone depletion measured as intrinsic clearance per mg of microsomal protein; assay type: ADME; conditions: microsomes
[24] = tested on: Liver microsome; test: Drug metabolism in human liver metabolism assessed as omeprazole sulfone formation measured per mg of microsomal protein; assay type: ADME; conditions: microsomes
[25] = tested on: Liver microsome; test: Drug metabolism in human liver metabolism assessed as omeprazole sulfone formation; assay type: ADME, tissue-based
[26] = tested on: Hepatocyte; test: Drug metabolism in human hepatocytes assessed as omeprazole sulfone formation measured per 10^6 cells as intrinsic unbound clearance; assay type: ADME, cell-based
[27] = tested on: Liver microsome; test: Drug metabolism in human liver metabolism assessed as 5OH-omeprazole formation measured as intrinsic unbound clearance per mg of microsomal protein; assay type: ADME; conditions: microsomes

COc1ccc2[nH]c([S+]([O-])Cc3ncc(CO)c(OC)c3C)nc2c1 (stereo not drawn)
Ratio AUC [1]: 0.48

COc1ccc2c(c1)[C@]13CCCC[C@@H]1[C@H](C2)N(C)CC3 [DEXTROMETHORPHAN]
Fu [2]: 0.72
CLH [3]: 13 µL/min/mg
CL free [4]: 14 µL/min/mg
Vmax [5]: 0.066 nmol/min
Km [6]: 5 µM
Fu [7]: 0.93

COc1ccc2nc(S(=O)(=O)Cc3ncc(C)c(OC)c3C)[nH]c2c1 [OMEPRAZOLE SULFONE]
Ratio AUC [1]: 0.85

COc1ccc2[nH]c([S+]([O-])Cc3ncc(C)c(OC)c3C)nc2c1 (stereo not drawn) [OMEPRAZOLE]
CL free [8]: 35 µL/min/mg
Fu [9]: 0.0048
Km [10]: 16 µM
Fu [11]: 0.86
Fu [12]: 0.061
Fu [13]: 0.86
CL free [14]: 48 uL/hr/10^6cells
Fu [15]: 0.92
CL free [16]: 7.7 µL/min/mg
Vmax [17]: 0.11 nmol/min/mg
CLint [18]: 7.1 µL/min/mg
CL free [19]: 100 uL/hr/10^6cells
CL free [20]: 55 uL/hr/10^6cells
Fu [21]: 0.061
CLint [22]: 6.6 µL/min/mg
CLint [23]: 32 µL/min/mg
Vmax [24]: 0.074 nmol/min/mg
Km [25]: 11 µM
CL free [26]: 3.6 uL/hr/10^6cells
CL free [27]: 8.2 µL/min/mg
